Measured values from patent US10519211B2, “Compounds as peptidic GLP1/glucagon/GIP receptor agonists” (SANOFI, priority 2016, dated 2019).
Numbered stars: 1 amine (or outer) side, 2 acyl side, 3 side chain; on linkers, the order of the positions; unused ones are H or OH. Square brackets hold non-standard residues; d marks the D form. Side chains are listed from the residue outwards. Peptide text beside a SMILES is read from it. * marks the point of attachment. Adipoyl(4R-palmitoylamino) = CCCCCCCCCCCCCCCC(=O)N[C@H](CCC(=O)*)CC(=O)O; γGlu = O=C(O)[C@H](CCC(=O)[*:2])N[*:1]; Palmitoyl = CCCCCCCCCCCCCCCC(=O)*; AEEA = NCCOCCOCC(=O)O; Aib = CC(C)(N)C(=O)O

How the values were obtained:
[1] = Thioflavin T (ThT) assay for physical stability (fibrillation); assay type: physicochemical; details: 3 mg/ml, 100 mM acetate pH 4.5 with m-cresol, shaking at 37° C.
Method: Investigations were carried out to determine fibrillation tendencies under stress conditions by shaking at 37° C. within Fluoroskan Ascent FL.
For the tests in Fluoroskan Ascent FL, 200 μL sample were placed into a 96 well mictrotiter plate PS, flat bottom, Greiner Fluotrac No. 655076. Plates were sealed with Scotch Tape (Quiagen). Samples were stressed by continuous cycles of 10 s shaking at 960 rpm and 50 s rest period at 37° C. The kinetic was monitored by measuring fluorescence intensity every 20 minutes.
Peptides were diluted in a buffer system to a final concentration of 3 mg/ml. 20 μL of a 10.1 mM ThT solution in H2O were added to 2 mL of peptide solution to receive a final concentration of 100 μM ThT. For each sample eight replicates were tested.
Tht buffer system A) 100 mM Acetate pH 4.5 including m-cresol (100 mM Natriumacetat trihydrat, pH adjustment using 2N CH3COOH, 2.7 mg/mL m-cresol) Tht buffer system B) 100 mM citrate buffer pH 6.0
Lag time in hours in Thioflavin T (ThT) assay of peptide samples was determined in Tht buffer system A as described in Methods.

[2] = target: T1, human GIP receptor (hGIP-R) (Homo sapiens, UniProt P48546); assay: cAMP response (HTRF) of HEK-293 cells stably expressing human GIP receptor; assay type: cell-based; details: Table 8; cAMP formation
T1 construct: expressed in transfected cells; host or cells: HEK-293
T1 sequence (P48546 22-466): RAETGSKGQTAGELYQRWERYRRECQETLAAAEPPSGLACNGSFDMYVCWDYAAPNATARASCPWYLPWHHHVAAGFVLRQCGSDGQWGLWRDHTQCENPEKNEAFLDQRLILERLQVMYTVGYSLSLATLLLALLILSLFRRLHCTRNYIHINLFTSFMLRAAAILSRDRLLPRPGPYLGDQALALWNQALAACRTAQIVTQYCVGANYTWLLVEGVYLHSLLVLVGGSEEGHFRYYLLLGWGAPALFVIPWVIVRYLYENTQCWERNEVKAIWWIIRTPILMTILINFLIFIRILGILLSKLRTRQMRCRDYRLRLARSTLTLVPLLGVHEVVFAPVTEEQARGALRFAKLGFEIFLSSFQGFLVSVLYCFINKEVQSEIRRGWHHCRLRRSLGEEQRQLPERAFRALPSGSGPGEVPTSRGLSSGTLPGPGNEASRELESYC
Method: cAMP content of cells was determined using a kit from Cisbio Corp. (cat. no. 62AM4PEJ) based on HTRF (Homogenous Time Resolved Fluorescence). For preparation, cells were split into T175 culture flasks and grown overnight to near confluency in medium (DMEM/10% FBS). Medium was then removed and cells washed with PBS lacking calcium and magnesium, followed by proteinase treatment with accutase (Sigma-Aldrich cat. no. A6964). Detached cells were washed and resuspended in assay buffer (1×HBSS; 20 mM HEPES, 0.1% BSA, 2 mM IBMX) and cellular density determined. They were then diluted to 400000 cells/ml and 25 μl-aliquots dispensed into the wells of 96-well plates. For measurement, 25 μl of test compound in assay buffer was added to the wells, followed by incubation for 30 minutes at room temperature.
Potencies of peptidic compounds at the GLP-1, glucagon and GIP receptors were determined by exposing cells expressing human glucagon receptor (hGlucagon R), human GIP receptor (hGIP-R) or human GLP-1 receptor (hGLP-1 R) to the listed compounds at increasing concentrations and measuring the formed cAMP as described in Methods.

[3] = Solubility assessment (UPLC-UV); assay type: physicochemical; details: acetate buffer pH 4.5, 2.7 mg/ml m-cresol (buffer system A), target 10 mg/ml
Method: Prior to the solubility measurement of a peptide batch, its purity was determined through UPLC/MS.
Therefore solutions from solid samples were prepared in a buffer systems with a concentration of 10 mg/mL compound based on the previously determined % purity:
Solubility buffer system A) Acetate Buffer pH 4.5, 100 mM sodium acetate trihydrate, 2.7 mg/ml m-Cresol
UPLC-UV was performed after 1 hour of gentle agitation from the supernatant, which was obtained after 15 min of centrifugation at 2500 RCF (relative centrifugal acceleration).
The solubility was determined by the comparison of the UV peak area of 2 μL-injection of a buffered sample diluted 1:10 with a standard curve of a reference peptide with known concentration. The different UV extinction coefficients of sample and reference peptide were calculated based on the different amino acid sequences and considered in the concentration calculation.
Peptide samples were prepared in solubility buffer system A and solubility was assessed as described in Methods.

[4] = Dynamic light scattering (DLS), hydrodynamic radius as surrogate for interaction parameter kD; assay type: physicochemical
Method: For every peptide solution, the hydrodynamic radius Rh and the diffusion constant D (related via the Stokes-Einstein equation) were determined as an average over triplicates. Both parameters were determined at different concentrations (e.g., Rh1 and D1: 1 mg/ml and Rh5 and D5: 5 mg/ml) in the same buffer system. The difference of these parameters between low and high peptide concentration is a surrogate for the DLS interaction parameter kD. Rh5<Rh1 or D5>D1 correspond to kD>0 and therefore to repulsive inter-particle interactions that result in improved physical (or colloidal) stability.
DLS buffer system A) 25 mM acetate buffer pH4.5, 3 mg/mL L-Methionine, 2.7 mg/mL m-cresol, 18 mg/mL Glycerol 85%
DLS Method C: DLS measurements were performed on a DynaPro Plate Reader II (Wyatt Technology, Santa Barbara, Calif., US) and using one of the following black, low volume, and non-treated plates: polystyrene 384 assay plate with clear bottom (Corning, N.Y., US), polystyrene 96 assay plate with clear bottom (Corning, N.Y., US), cyclo olefin polymer (COP) 384 assay plate with clear bottom (Aurora, Mont., US), or polystyrene 384 assay plate with clear bottom (Greiner Bio-One, Germany). The data were processed with the Dynamics software provided by Wyatt Technology. Parameters of the particle size distribution were determined with non-negatively constrained least squares (NNLS) methods using DynaLS algorithms. Measurements were taken at 25° C. with an 830 nm laser light source at an angle of 158°.
The hydrodynamic radius radius Rh of peptide samples was determined at different peptide concentrations (1 mg/ml and 5 mg/ml) in DLS buffer system A using DLS method C as described in Methods as surrogate for the DLS interaction parameter kD.

[5] = Chemical stability assessment (UPLC-UV, relative purity loss); assay type: physicochemical; details: 1 mg/ml, 25 mM acetate buffer pH 4.5 with m-cresol (buffer system A)
Method: Prior to the chemical stability measurement of a peptide batch, its purity was determined through UPLC/MS. For stability testing the target concentration was 1 mg pure compound/ml. Therefore solutions from solid samples were prepared in a buffer system with a concentration of 1 mg/mL compound based on the previously determined % purity:
Chemical stability buffer system A) 25 mM acetate buffer pH4.5, 3 mg/mL L-Methionine, 2.7 mg/mL m-cresol, 18 mg/mL Glycerol 85%
Peptide solutions were filtered through […] pore size and filled into aliquots under aseptic conditions. At starting point UPLC-UV was performed by injection of 2 μl of the undiluted sample.
For chemical stability testing, aliquots were stored for 28 days at Sand 40° C. After this time course the samples were centrifuged for 15 min at 2500 RCF. Then 2 μl of the undiluted supernatant were analysed with UPLC-UV.
The chemical stability was rated through the relative loss of purity calculated by the equation: [(purity at starting point)−(purity after 28 days at X° C.)]/(purity at starting point)]*100%
The purity is calculated as [(peak area peptide)/(total peak area)]*100%
Peptide samples were prepared in Chemical stability buffer system A and chemical stability was assessed as described in Methods.

Lag time before increase [1] | EC50 [2] | solubility at 1 h [3] | Delta Rh [nm] = Rh5 − Rh1 ([4]; DLS buffer system A pH 4.5) | Rh1 [nm] c= 1 mg/ml ([4]; hydrodynamic radius, 1 mg/ml, DLS buffer system A pH 4.5, DLS method C, 25° C.) | Rh5 [nm] c = 5 mg/ml ([4]; hydrodynamic radius, 5 mg/ml, DLS buffer system A pH 4.5, DLS method C, 25° C.) | Chemical stability [relative purity loss 28 days 40° C.] (%) at pH 4.5 [5] | Compound
>45 h | 5.6 pM |  |  |  |  |  | CCCCCCCCCCCCCCCC(=O)NCCOCCOCC(=O)N[C@@H](CCC(=O)N[C@@H](CCC(=O)NCCCC[C@H](NC(=O)[C@H](CC(C)C)NC(=O)[C@H](CCCCN)NC(=O)[C@H](CO)NC(=O)[C@H](CC(C)C)NC(=O)[C@H](CC(=O)O)NC(=O)[C@H](CO)NC(=O)[C@@H](NC(=O)[C@H](Cc1ccccc1)NC(=O)[C@@H](NC(=O)CNC(=O)[C@H](CCC(N)=O)NC(=O)C(C)(C)NC(=O)[C@@H](N)Cc1c[nH]cn1)[C@@H](C)O)[C@@H](C)O)C(=O)N[C@@H](CCC(=O)O)C(=O)N[C@@H](CCC(=O)O)C(=O)N[C@@H](CCC(N)=O)C(=O)N[C@@H](CCCNC(=N)N)C(=O)N[C@@H](CCC(N)=O)C(=O)NC(C)(C)C(=O)N[C@@H](CCC(=O)O)C(=O)N[C@@H](Cc1ccccc1)C(=O)N[C@H](C(=O)N[C@@H](CCC(=O)O)C(=O)N[C@@H](Cc1c[nH]c2ccccc12)C(=O)N[C@@H](CC(C)C)C(=O)N[C@@H](CCCCN)C(=O)N[C@@H](C)C(=O)NCC(=O)NCC(=O)N[C@@H](Cc1c[nH]cn1)C(=O)N1CCC[C@H]1C(=O)N[C@@H](CO)C(=O)NC(C)(C)C(=O)N[C@@H](CCCCN)C(=O)N1CCC[C@H]1C(=O)N1CCC[C@H]1C(=O)N1CCC[C@H]1C(=O)N[C@@H](CCCCN)C(N)=O)[C@@H](C)CC)C(=O)O)C(=O)O [SEQ ID NO: 18, H-Aib-Q-G-T-F-T-S-D-L-S-K-L-K[gGlu-gGlu-AEEA-Palm]-E-E-Q-R-Q-Aib-E-F-I-E-W-L-K-A-G-G-H-P-S-Aib-K-P-P-P-K-NH2] (H-H[Aib]QGTFTSDLSKLK([γGlu-γGlu-AEEA-Palmitoyl])EEQRQ[Aib]EFIEWLKAGGHPS[Aib]KPPPK-NH2)
>45 h |  | > 10.4 mg/mL | −0.1 nm | 2.8 nm | 2.7 nm | 9.6% | CCCCCCCCCCCCCCCC(=O)N[C@H](CCC(=O)NCCOCCOCC(=O)N[C@@H](CCC(=O)NCCCC[C@H](NC(=O)[C@H](CC(C)C)NC(=O)[C@H](CCCCN)NC(=O)[C@H](CO)NC(=O)[C@H](CC(C)C)NC(=O)[C@H](CC(=O)O)NC(=O)[C@H](CO)NC(=O)[C@@H](NC(=O)[C@H](Cc1ccccc1)NC(=O)[C@@H](NC(=O)CNC(=O)[C@H](CCC(N)=O)NC(=O)C(C)(C)NC(=O)[C@@H](N)Cc1c[nH]cn1)[C@@H](C)O)[C@@H](C)O)C(=O)N[C@@H](CCC(=O)O)C(=O)N[C@@H](CCC(=O)O)C(=O)N[C@@H](CCC(N)=O)C(=O)N[C@@H](CCCNC(=N)N)C(=O)N[C@@H](CCC(N)=O)C(=O)NC(C)(C)C(=O)N[C@@H](CCC(=O)O)C(=O)N[C@@H](Cc1ccccc1)C(=O)N[C@H](C(=O)N[C@@H](CCC(=O)O)C(=O)N[C@@H](Cc1c[nH]c2ccccc12)C(=O)N[C@@H](CC(C)C)C(=O)N[C@@H](CCCCN)C(=O)N[C@@H](C)C(=O)N[C@H](C)C(=O)NCC(=O)N[C@@H](Cc1c[nH]cn1)C(=O)N1CCC[C@H]1C(=O)N[C@@H](CO)C(=O)NC(C)(C)C(=O)N[C@@H](CCCCN)C(=O)N1CCC[C@H]1C(=O)N1CCC[C@H]1C(=O)N1CCC[C@H]1C(=O)N[C@@H](CCCCN)C(N)=O)[C@@H](C)CC)C(=O)O)CC(=O)O [SEQ ID NO: 23, H-Aib-Q-G-T-F-T-S-D-L-S-K-L-K[gGlu-AEEA-gAAA-Palm]-E-E-Q-R-Q-Aib-E-F-I-E-W-L-K-A-dAla-G-H-P-S-Aib-K-P-P-P-K-NH2] (H-H[Aib]QGTFTSDLSKLK([γGlu-AEEA-Adipoyl(4R-palmitoylamino)])EEQRQ[Aib]EFIEWLKA[dA]GHPS[Aib]KPPPK-NH2)
